Experimental data from ChEMBL document CHEMBL6134833, “Recent advances in CDC7 kinase inhibitors: Novel strategies for the treatment of cancers and neurodegenerative diseases” (Eur J Med Chem, 2025).
Each block holds one molecule with its values, some of them ahead of it.

How the values were obtained:
[1] = target: Cyclin-dependent kinase 2/cyclin A (Homo sapiens, UniProt P24941); assay: Inhibition of CDK2/Cyclin A (unknown origin); assay type: protein-complex assay
Casein kinase 2 = Casein kinase 2 (Homo sapiens, UniProt P67870+P68400+P19784+Q8NEV1); assay: Inhibition of CK2 (unknown origin); assay type: protein assay
[2] = Metabolic stability in human liver microsome assessed as microsomal clearance; assay type: ADME; details: microsomes
[3] = Metabolic stability in rat liver microsome assessed as microsomal clearance; assay type: ADME; details: microsomes
CDK3/Cyclin E = CDK3/Cyclin E (Homo sapiens, UniProt Q00526); assay: Inhibition of CDK3/cyclin E1 (unknown origin) by ADP-Glo kinase assay; assay type: protein-complex assay
[4] = Inhibition of MCM2 (unknown origin); parameters: species or system Homo sapiens
[5] = target: T1, Cell division cycle 7-related protein kinase (Homo sapiens, UniProt O00311); assay: Inhibition of CDC7 (unknown origin)
[6] = target: T1, Cell division cycle 7-related protein kinase; assay: Inhibition of GST full length human CDC7 (1 to 574 residues) expressed in baculovirus expression system

T1 sequence (O00311 whole entry, the tested form may be a part): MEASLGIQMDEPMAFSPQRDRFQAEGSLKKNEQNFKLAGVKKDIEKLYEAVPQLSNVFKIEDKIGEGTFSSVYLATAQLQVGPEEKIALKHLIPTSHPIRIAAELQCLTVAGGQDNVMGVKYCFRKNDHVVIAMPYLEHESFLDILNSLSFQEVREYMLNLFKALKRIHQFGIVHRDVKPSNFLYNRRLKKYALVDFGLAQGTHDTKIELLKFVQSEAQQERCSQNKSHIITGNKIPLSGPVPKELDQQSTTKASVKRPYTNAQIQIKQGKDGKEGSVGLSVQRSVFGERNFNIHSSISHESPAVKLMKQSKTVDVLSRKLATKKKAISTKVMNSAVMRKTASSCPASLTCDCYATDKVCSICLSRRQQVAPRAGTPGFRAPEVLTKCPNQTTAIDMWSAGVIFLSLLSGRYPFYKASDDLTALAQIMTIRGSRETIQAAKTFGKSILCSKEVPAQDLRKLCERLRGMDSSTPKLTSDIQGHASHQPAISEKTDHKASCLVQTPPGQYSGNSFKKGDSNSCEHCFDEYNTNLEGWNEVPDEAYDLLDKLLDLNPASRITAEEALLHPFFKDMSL
Chain of CDK3/Cyclin E (P24864 whole entry): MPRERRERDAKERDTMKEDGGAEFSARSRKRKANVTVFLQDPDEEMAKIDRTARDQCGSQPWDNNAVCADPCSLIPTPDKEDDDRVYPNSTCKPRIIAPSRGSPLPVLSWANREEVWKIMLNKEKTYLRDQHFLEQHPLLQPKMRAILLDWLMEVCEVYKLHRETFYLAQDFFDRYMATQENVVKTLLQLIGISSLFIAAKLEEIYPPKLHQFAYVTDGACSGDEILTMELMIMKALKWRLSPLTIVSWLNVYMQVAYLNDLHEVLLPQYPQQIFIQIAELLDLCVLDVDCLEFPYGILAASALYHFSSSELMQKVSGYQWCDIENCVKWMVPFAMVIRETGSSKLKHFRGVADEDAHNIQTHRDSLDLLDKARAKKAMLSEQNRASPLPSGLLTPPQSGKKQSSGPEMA
Chain of CDK3/Cyclin E (Q00526 whole entry): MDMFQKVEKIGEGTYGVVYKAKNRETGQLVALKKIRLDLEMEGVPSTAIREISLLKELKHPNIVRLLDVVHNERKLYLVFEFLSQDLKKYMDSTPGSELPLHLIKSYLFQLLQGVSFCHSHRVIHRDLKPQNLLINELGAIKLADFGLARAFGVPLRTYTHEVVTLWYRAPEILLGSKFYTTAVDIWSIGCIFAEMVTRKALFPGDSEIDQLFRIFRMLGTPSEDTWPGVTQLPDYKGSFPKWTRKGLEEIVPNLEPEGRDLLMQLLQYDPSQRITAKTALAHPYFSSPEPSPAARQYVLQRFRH

SMILES: NC(=O)c1cc(-c2ccncc2)[nH]c1-c1ccccc1
IC50 [1]: 1.1 µM

SMILES: O=c1[nH]cnc2c1oc1ccc(Br)cc12
IC50 (Casein kinase 2): 1.5 µM

SMILES: Nc1nccc(-n2cc(-c3cccnc3Cl)c3cnccc32)n1
CLH [2]: 21 µL/min/µg
CLH [3]: 72 µL/min/µg

SMILES: Nc1nccc(-n2ccc3ncccc32)n1
CLH [2]: 60 µL/min/µg
CLH [3]: 50 µL/min/µg

SMILES: Nc1nccc(-n2ccc3cnccc32)n1
CLH [2]: 62 µL/min/µg
CLH [3]: 101 µL/min/µg

SMILES: O=c1[nH]c([C@@H]2CC3CCN2CC3)nc2c3c(sc12)-c1c[nH]nc1CCC3
IC50 [5]: 3.02 µM

Results, then the molecule that gave them:

IC50 (Casein kinase 2): 0.215 µM
SMILES: O=c1[nH]c([C@@H]2CCCN2)nc2c1oc1ccc(Cl)cc12

CLH [2]: 30 µL/min/µg
CLH [3]: 102 µL/min/µg
SMILES: Nc1nccc(-n2cc(-c3cccnc3Cl)c3cnc(Cl)cc32)n1

IC50 (CDK3/Cyclin E): 6.5 µM
IC50 [4]: 0.036 µM
SMILES: Cc1n[nH]cc1-c1cc2nc([C@@H]3CCCCN3)[nH]c(=O)c2s1

IC50 [5]: < 1 µM
SMILES: N[C@H](c1nc2cc(-c3ccncc3F)sc2c(=O)[nH]1)C1CC1

IC50 [6]: 0.0912 µM
SMILES: Cn1nccc1-c1nc(C2CCOCC2)c(Cl)c(=O)[nH]1

IC50 [5]: < 1 µM
SMILES: Cc1[nH]c(=O)c2sc(-c3cn[nH]c3)c3c2c1CCCO3
